molecular target: Serine/threonine-protein kinase VRK2 (Homo sapiens) (UniProt Q86Y07)
Sequence (Q86Y07 whole entry): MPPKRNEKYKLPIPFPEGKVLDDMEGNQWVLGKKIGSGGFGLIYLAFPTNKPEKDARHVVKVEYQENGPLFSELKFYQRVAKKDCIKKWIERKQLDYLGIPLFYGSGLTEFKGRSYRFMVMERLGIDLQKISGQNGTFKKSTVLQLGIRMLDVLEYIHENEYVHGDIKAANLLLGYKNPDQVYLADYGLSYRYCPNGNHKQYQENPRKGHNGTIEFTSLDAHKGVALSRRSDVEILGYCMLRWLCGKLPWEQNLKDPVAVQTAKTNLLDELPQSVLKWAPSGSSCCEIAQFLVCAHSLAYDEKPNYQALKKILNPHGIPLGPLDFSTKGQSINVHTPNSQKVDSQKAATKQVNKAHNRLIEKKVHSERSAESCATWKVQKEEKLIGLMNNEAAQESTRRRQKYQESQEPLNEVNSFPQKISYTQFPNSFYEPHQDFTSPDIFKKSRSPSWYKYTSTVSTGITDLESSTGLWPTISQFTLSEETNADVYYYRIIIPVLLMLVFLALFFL

Q: Which ΔTm does the source give for `CCN1/C(=C/C(C)=O)Sc2ccc(OC)cc21` here?
A: 0.4 °C

Q: How did the ΔTm turn out when `NS(=O)(=O)c1ccc(Nc2nc(OCC3CCCCC3)c3nc[nH]c3n2)cc1` was run?
A: 0.6 °C

Q: Which ΔTm does the source give for `CN(C)C[C@@H]1CCn2cc(c3ccccc32)C2=C(C(=O)NC2=O)c2cn(c3ccccc23)CCO1` [RUBOXISTAURIN] here?
A: 1 °C

Q: Which ΔTm does the source give for `CC[C@H](CO)Nc1nc(NCc2ccccc2)c2ncn(C(C)C)c2n1` [SELICICLIB] here?
A: 2.1 °C

Q: Which ΔTm does the source give for `COc1ccc2c(c1)/C(=C/c1cnc[nH]1)C(=O)N2` [SU-9516] here?
A: 0.7 °C

Q: With `Oc1cc(O)cc(/C=C/c2ccc(O)c(O)c2)c1` [PICEATANNOL] as the molecule, how does the ΔTm read?
A: -0.4 °C

molecular target: T1, Calcium/calmodulin-dependent protein kinase type IV (Homo sapiens) (UniProt Q16566)
T1 sequence (whole entry): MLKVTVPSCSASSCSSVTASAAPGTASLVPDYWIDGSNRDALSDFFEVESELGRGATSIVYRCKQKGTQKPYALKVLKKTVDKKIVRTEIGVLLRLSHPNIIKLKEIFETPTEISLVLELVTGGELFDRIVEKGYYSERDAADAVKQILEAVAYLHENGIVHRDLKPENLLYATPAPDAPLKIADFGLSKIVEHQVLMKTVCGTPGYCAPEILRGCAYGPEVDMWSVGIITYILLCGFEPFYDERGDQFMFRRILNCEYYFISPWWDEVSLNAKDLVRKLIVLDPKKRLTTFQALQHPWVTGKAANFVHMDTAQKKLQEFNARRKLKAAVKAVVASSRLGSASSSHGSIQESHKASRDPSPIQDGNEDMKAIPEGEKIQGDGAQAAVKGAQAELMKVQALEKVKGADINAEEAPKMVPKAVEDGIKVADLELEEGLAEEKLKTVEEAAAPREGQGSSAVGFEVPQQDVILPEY

Q: `CCN1/C(=C/C(C)=O)Sc2ccc(OC)cc21` was tested. Which ΔTm did it give?
A: 0.8 °C

Q: With `NS(=O)(=O)c1ccc(Nc2nc(OCC3CCCCC3)c3nc[nH]c3n2)cc1` as the molecule, how does the ΔTm read?
A: 0.7 °C

Q: For `CN(C)C[C@@H]1CCn2cc(c3ccccc32)C2=C(C(=O)NC2=O)c2cn(c3ccccc23)CCO1` [RUBOXISTAURIN], which ΔTm is on record?
A: 2.9 °C

Q: With `CC[C@H](CO)Nc1nc(NCc2ccccc2)c2ncn(C(C)C)c2n1` [SELICICLIB] as the molecule, how does the ΔTm read?
A: 0.2 °C

Q: Which ΔTm does the source give for `COc1ccc2c(c1)/C(=C/c1cnc[nH]1)C(=O)N2` [SU-9516] here?
A: 1.5 °C

Q: `Oc1cc(O)cc(/C=C/c2ccc(O)c(O)c2)c1` [PICEATANNOL] was tested. Which ΔTm did it give?
A: 0.2 °C

molecular target: Serine/threonine-protein kinase RIO2 (Homo sapiens) (UniProt Q9BVS4)
Sequence (Q9BVS4 whole entry, looked up): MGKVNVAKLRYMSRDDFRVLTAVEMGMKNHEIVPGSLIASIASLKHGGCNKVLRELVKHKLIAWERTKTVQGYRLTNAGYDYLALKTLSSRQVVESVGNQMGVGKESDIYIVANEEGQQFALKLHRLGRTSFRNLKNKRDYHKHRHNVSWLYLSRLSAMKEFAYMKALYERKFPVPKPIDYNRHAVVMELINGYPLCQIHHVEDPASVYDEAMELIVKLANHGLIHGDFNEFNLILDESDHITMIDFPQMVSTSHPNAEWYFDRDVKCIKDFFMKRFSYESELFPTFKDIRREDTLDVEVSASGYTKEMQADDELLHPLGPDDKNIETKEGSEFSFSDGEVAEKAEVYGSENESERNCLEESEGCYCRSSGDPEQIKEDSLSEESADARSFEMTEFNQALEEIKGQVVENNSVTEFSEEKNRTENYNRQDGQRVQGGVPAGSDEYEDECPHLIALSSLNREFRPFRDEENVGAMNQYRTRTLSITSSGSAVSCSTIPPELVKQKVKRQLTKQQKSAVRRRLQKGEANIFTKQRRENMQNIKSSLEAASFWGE

Q: How did the ΔTm turn out when `CCN1/C(=C/C(C)=O)Sc2ccc(OC)cc21` was run?
A: -0.2 °C

Q: How did the ΔTm turn out when `NS(=O)(=O)c1ccc(Nc2nc(OCC3CCCCC3)c3nc[nH]c3n2)cc1` was run?
A: 4 °C

Q: For `CN(C)C[C@@H]1CCn2cc(c3ccccc32)C2=C(C(=O)NC2=O)c2cn(c3ccccc23)CCO1` [RUBOXISTAURIN], which ΔTm is on record?
A: 1.8 °C

Q: For `CC[C@H](CO)Nc1nc(NCc2ccccc2)c2ncn(C(C)C)c2n1` [SELICICLIB], which ΔTm is on record?
A: 0 °C

Q: `COc1ccc2c(c1)/C(=C/c1cnc[nH]1)C(=O)N2` [SU-9516] was tested. Which ΔTm did it give?
A: 1.3 °C

Q: `Oc1cc(O)cc(/C=C/c2ccc(O)c(O)c2)c1` [PICEATANNOL] was tested. Which ΔTm did it give?
A: 0.6 °C

molecular target: Ribosomal protein S6 kinase alpha-3 (Homo sapiens) (UniProt P51812)
Sequence (P51812 whole entry): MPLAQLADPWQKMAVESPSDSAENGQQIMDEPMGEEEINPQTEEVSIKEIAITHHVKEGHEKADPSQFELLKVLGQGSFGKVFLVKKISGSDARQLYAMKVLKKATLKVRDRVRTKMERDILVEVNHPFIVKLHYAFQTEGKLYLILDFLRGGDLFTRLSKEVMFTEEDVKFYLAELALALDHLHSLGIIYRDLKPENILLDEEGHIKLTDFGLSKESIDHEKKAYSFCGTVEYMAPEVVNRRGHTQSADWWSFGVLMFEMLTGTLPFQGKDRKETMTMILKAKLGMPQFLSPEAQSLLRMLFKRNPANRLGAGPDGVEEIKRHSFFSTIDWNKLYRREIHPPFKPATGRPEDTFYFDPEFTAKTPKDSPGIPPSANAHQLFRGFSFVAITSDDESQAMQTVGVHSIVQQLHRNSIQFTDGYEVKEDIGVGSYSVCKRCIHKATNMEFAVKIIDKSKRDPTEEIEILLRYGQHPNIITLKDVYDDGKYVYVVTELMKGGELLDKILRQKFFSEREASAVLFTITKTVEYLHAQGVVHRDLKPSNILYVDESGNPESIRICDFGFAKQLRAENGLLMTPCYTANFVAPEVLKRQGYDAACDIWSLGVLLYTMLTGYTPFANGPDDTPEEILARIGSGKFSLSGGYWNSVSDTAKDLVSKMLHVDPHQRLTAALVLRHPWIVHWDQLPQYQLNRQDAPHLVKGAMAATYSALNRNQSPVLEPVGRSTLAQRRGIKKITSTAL

Q: How did the ΔTm turn out when `CCN1/C(=C/C(C)=O)Sc2ccc(OC)cc21` was run?
A: 0.4 °C

Q: For `NS(=O)(=O)c1ccc(Nc2nc(OCC3CCCCC3)c3nc[nH]c3n2)cc1`, which ΔTm is on record?
A: 1.3 °C

Q: How did the ΔTm turn out when `CN(C)C[C@@H]1CCn2cc(c3ccccc32)C2=C(C(=O)NC2=O)c2cn(c3ccccc23)CCO1` [RUBOXISTAURIN] was run?
A: 8.1 °C

Q: Which ΔTm does the source give for `CC[C@H](CO)Nc1nc(NCc2ccccc2)c2ncn(C(C)C)c2n1` [SELICICLIB] here?
A: 1.1 °C

molecular target: Serine/threonine-protein kinase PAK 4 (Homo sapiens) (UniProt O96013)
Sequence (O96013 whole entry, looked up): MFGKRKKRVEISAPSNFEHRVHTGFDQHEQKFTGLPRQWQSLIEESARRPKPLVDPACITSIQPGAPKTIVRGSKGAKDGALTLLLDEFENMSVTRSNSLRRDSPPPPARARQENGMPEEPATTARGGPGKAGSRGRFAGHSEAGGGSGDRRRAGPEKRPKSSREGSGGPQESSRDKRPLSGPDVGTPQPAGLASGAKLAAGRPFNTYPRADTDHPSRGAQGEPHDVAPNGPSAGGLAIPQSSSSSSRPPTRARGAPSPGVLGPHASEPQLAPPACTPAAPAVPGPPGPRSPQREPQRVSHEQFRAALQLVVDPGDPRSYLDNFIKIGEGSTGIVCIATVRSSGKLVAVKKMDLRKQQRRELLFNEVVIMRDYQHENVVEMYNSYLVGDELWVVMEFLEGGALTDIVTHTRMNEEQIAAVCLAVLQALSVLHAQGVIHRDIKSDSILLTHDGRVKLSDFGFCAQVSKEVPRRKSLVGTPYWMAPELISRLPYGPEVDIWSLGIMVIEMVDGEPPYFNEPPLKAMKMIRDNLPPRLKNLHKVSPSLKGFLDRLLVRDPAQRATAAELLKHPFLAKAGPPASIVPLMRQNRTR

Q: For `CCN1/C(=C/C(C)=O)Sc2ccc(OC)cc21`, which ΔTm is on record?
A: 0.9 °C

Q: Which ΔTm does the source give for `NS(=O)(=O)c1ccc(Nc2nc(OCC3CCCCC3)c3nc[nH]c3n2)cc1` here?
A: 3.8 °C

Q: `CC[C@H](CO)Nc1nc(NCc2ccccc2)c2ncn(C(C)C)c2n1` [SELICICLIB] was tested. Which ΔTm did it give?
A: 1.7 °C

Q: `COc1ccc2c(c1)/C(=C/c1cnc[nH]1)C(=O)N2` [SU-9516] was tested. Which ΔTm did it give?
A: 1.8 °C

Q: With `Oc1cc(O)cc(/C=C/c2ccc(O)c(O)c2)c1` [PICEATANNOL] as the molecule, how does the ΔTm read?
A: 1.5 °C

molecular target: T2, Lymphokine-activated killer T-cell-originated protein kinase (Homo sapiens) (UniProt Q96KB5)
T2 sequence (whole entry): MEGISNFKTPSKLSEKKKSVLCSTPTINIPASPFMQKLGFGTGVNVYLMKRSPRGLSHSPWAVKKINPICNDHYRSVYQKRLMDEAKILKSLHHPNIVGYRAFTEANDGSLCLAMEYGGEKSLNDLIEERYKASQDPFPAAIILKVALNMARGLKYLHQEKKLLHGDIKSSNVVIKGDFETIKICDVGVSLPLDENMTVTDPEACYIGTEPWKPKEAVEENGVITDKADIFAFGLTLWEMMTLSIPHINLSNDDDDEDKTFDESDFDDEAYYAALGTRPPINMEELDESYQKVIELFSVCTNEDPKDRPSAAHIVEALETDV

Q: For `CCN1/C(=C/C(C)=O)Sc2ccc(OC)cc21`, which ΔTm is on record?
A: 1.1 °C

Q: `NS(=O)(=O)c1ccc(Nc2nc(OCC3CCCCC3)c3nc[nH]c3n2)cc1` was tested. Which ΔTm did it give?
A: 0.9 °C

Q: How did the ΔTm turn out when `CN(C)C[C@@H]1CCn2cc(c3ccccc32)C2=C(C(=O)NC2=O)c2cn(c3ccccc23)CCO1` [RUBOXISTAURIN] was run?
A: 0.9 °C

Q: How did the ΔTm turn out when `CC[C@H](CO)Nc1nc(NCc2ccccc2)c2ncn(C(C)C)c2n1` [SELICICLIB] was run?
A: 0.8 °C

Q: Which ΔTm does the source give for `COc1ccc2c(c1)/C(=C/c1cnc[nH]1)C(=O)N2` [SU-9516] here?
A: 0 °C

Q: How did the ΔTm turn out when `Oc1cc(O)cc(/C=C/c2ccc(O)c(O)c2)c1` [PICEATANNOL] was run?
A: 0 °C

molecular target: Serine/threonine-protein kinase pim-3 (Homo sapiens) (UniProt Q86V86)

Q: Which ΔTm does the source give for `CCN1/C(=C/C(C)=O)Sc2ccc(OC)cc21` here?
A: 0.2 °C

Q: `NS(=O)(=O)c1ccc(Nc2nc(OCC3CCCCC3)c3nc[nH]c3n2)cc1` was tested. Which ΔTm did it give?
A: 1.3 °C

Q: How did the ΔTm turn out when `CN(C)C[C@@H]1CCn2cc(c3ccccc32)C2=C(C(=O)NC2=O)c2cn(c3ccccc23)CCO1` [RUBOXISTAURIN] was run?
A: 5.8 °C

Q: Which ΔTm does the source give for `CC[C@H](CO)Nc1nc(NCc2ccccc2)c2ncn(C(C)C)c2n1` [SELICICLIB] here?
A: 0.5 °C

Q: How did the ΔTm turn out when `COc1ccc2c(c1)/C(=C/c1cnc[nH]1)C(=O)N2` [SU-9516] was run?
A: 2.3 °C

Q: For `Oc1cc(O)cc(/C=C/c2ccc(O)c(O)c2)c1` [PICEATANNOL], which ΔTm is on record?
A: 3.5 °C

molecular target: Serine/threonine-protein kinase 16 (Homo sapiens) (UniProt O75716)
Sequence (O75716 whole entry): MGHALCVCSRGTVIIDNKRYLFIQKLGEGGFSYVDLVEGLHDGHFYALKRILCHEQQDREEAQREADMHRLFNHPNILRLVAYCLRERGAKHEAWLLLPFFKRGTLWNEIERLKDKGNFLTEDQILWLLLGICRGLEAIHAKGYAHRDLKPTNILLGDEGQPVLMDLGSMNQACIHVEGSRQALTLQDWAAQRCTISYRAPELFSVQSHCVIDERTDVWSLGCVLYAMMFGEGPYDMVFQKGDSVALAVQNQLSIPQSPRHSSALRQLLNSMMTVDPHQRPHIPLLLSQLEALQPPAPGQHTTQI

Q: Which ΔTm does the source give for `CCN1/C(=C/C(C)=O)Sc2ccc(OC)cc21` here?
A: 1.7 °C

Q: `NS(=O)(=O)c1ccc(Nc2nc(OCC3CCCCC3)c3nc[nH]c3n2)cc1` was tested. Which ΔTm did it give?
A: 4.4 °C

Q: With `CN(C)C[C@@H]1CCn2cc(c3ccccc32)C2=C(C(=O)NC2=O)c2cn(c3ccccc23)CCO1` [RUBOXISTAURIN] as the molecule, how does the ΔTm read?
A: 0.8 °C

Q: `COc1ccc2c(c1)/C(=C/c1cnc[nH]1)C(=O)N2` [SU-9516] was tested. Which ΔTm did it give?
A: 4.4 °C

Q: `Oc1cc(O)cc(/C=C/c2ccc(O)c(O)c2)c1` [PICEATANNOL] was tested. Which ΔTm did it give?
A: 4.4 °C

molecular target: Casein kinase I isoform gamma-2 (Homo sapiens) (UniProt P78368)
Sequence (P78368 whole entry, looked up, canonical isoform): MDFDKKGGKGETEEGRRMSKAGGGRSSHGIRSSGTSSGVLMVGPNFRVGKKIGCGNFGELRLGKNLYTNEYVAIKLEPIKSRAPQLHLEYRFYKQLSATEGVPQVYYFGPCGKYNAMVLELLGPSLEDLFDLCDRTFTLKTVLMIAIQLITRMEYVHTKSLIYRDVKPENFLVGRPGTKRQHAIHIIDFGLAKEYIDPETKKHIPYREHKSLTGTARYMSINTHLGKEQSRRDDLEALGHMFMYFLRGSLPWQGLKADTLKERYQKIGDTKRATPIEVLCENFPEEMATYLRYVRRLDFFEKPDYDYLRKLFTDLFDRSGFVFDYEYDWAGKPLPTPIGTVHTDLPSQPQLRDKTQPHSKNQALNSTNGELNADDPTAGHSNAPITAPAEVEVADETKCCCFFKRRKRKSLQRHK

Q: How did the ΔTm turn out when `NS(=O)(=O)c1ccc(Nc2nc(OCC3CCCCC3)c3nc[nH]c3n2)cc1` was run?
A: 2.5 °C

Q: Which ΔTm does the source give for `CN(C)C[C@@H]1CCn2cc(c3ccccc32)C2=C(C(=O)NC2=O)c2cn(c3ccccc23)CCO1` [RUBOXISTAURIN] here?
A: 0.9 °C

Q: With `COc1ccc2c(c1)/C(=C/c1cnc[nH]1)C(=O)N2` [SU-9516] as the molecule, how does the ΔTm read?
A: 0.7 °C

Q: With `Oc1cc(O)cc(/C=C/c2ccc(O)c(O)c2)c1` [PICEATANNOL] as the molecule, how does the ΔTm read?
A: 0.2 °C

molecular target: Cyclin-dependent kinase 2 (Homo sapiens, UniProt P24941)

Q: For `CCN1/C(=C/C(C)=O)Sc2ccc(OC)cc21`, which ΔTm is on record?
A: 0.1 °C

Q: Which ΔTm does the source give for `CN(C)C[C@@H]1CCn2cc(c3ccccc32)C2=C(C(=O)NC2=O)c2cn(c3ccccc23)CCO1` [RUBOXISTAURIN] here?
A: 0.9 °C

Q: Which ΔTm does the source give for `Oc1cc(O)cc(/C=C/c2ccc(O)c(O)c2)c1` [PICEATANNOL] here?
A: 1.2 °C

molecular target: T3, Serine/threonine-protein kinase 4 (Homo sapiens) (UniProt Q13043)
T3 sequence (whole entry): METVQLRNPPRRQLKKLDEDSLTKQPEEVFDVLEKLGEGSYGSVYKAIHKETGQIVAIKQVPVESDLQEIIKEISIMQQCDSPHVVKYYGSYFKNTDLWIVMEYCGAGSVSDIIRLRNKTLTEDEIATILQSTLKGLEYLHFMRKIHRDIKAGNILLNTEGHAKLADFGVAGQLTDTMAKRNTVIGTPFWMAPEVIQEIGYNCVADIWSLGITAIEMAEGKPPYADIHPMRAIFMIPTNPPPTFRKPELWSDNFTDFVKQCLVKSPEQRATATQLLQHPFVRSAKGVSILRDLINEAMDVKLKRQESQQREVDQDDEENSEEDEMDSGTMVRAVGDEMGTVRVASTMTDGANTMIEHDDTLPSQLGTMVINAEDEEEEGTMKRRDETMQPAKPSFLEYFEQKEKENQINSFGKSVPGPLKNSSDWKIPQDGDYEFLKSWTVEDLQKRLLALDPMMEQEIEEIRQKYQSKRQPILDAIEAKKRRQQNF

Q: Which ΔTm does the source give for `CCN1/C(=C/C(C)=O)Sc2ccc(OC)cc21` here?
A: 0.1 °C

Q: How did the ΔTm turn out when `NS(=O)(=O)c1ccc(Nc2nc(OCC3CCCCC3)c3nc[nH]c3n2)cc1` was run?
A: 1.4 °C

Q: With `CN(C)C[C@@H]1CCn2cc(c3ccccc32)C2=C(C(=O)NC2=O)c2cn(c3ccccc23)CCO1` [RUBOXISTAURIN] as the molecule, how does the ΔTm read?
A: 0.6 °C

Q: How did the ΔTm turn out when `CC[C@H](CO)Nc1nc(NCc2ccccc2)c2ncn(C(C)C)c2n1` [SELICICLIB] was run?
A: 0.3 °C

Q: How did the ΔTm turn out when `COc1ccc2c(c1)/C(=C/c1cnc[nH]1)C(=O)N2` [SU-9516] was run?
A: 8.1 °C

Q: `Oc1cc(O)cc(/C=C/c2ccc(O)c(O)c2)c1` [PICEATANNOL] was tested. Which ΔTm did it give?
A: 0.3 °C
